Experiments:
U-251 [1] = assay: Induction of apoptosis in human U-251 cells assessed as increase in viable cells at 500 nM measured after 24 hrs by PI/FITC analysis (reference value: 98.3%); assay type: functional
A549 [2] = assay: Induction of apoptosis in human A549 cells assessed as increase in necrotic cells at 500 nM measured after 24 hrs by PI/FITC analysis (reference value: 0.365%); assay type: functional
U-251 [3] = assay: Cell cycle arrest in human U-251 cells assessed as S phase at 1000 nM measured after 24 hrs by propidium iodide staining based flow cytometry analysis (reference value: 18.23%); assay type: functional
U-251 [4] = assay: Induction of apoptosis in human U-251 cells assessed as increase in viable cells at 200 nM measured after 24 hrs by PI/FITC analysis (reference value: 98.3%); assay type: functional
A549 [5] = assay: Induction of apoptosis in human A549 cells assessed as increase in viable cells at 200 nM measured after 24 hrs by PI/FITC analysis (reference value: 98.4%); assay type: functional
A549 [6] = assay: Cell cycle arrest in human A549 cells assessed as S phase at 200 nM measured after 24 hrs by propidium iodide staining based flow cytometry analysis (reference value: 14.78%); assay type: functional
U-251 [7] = assay: Induction of apoptosis in human U-251 cells assessed as increase in early apoptotic cells at 1000 nM measured after 24 hrs by PI/FITC analysis (reference value: 1.12%); assay type: functional
NCI-H460 = assay: Antiproliferative activity against human NCI-H460 cells after 48 hrs by MTT assay; assay type: functional, cell-based; conditions: NCI-H460, 48 h
U-251 [8] = assay: Induction of apoptosis in human U-251 cells assessed as increase in necrotic cells at 500 nM measured after 24 hrs by PI/FITC analysis (reference value: 0.301%); assay type: functional
U-251 [9] = assay: Induction of apoptosis in human U-251 cells assessed as increase in early apoptotic cells at 500 nM measured after 24 hrs by PI/FITC analysis (reference value: 1.12%); assay type: functional
A549 [10] = assay: Induction of apoptosis in human A549 cells assessed as increase in necrotic cells at 50 nM measured after 24 hrs by PI/FITC analysis (reference value: 0.365%); assay type: functional
A549 [11] = assay: Cell cycle arrest in human A549 cells assessed as G0/G1 phase at 50 nM measured after 24 hrs by propidium iodide staining based flow cytometry analysis (reference value: 79.14%); assay type: functional
A549 [12] = assay: Cell cycle arrest in human A549 cells assessed as G0/G1 phase at 200 nM measured after 24 hrs by propidium iodide staining based flow cytometry analysis (reference value: 79.14%); assay type: functional
A549 [13] = assay: Cell cycle arrest in human A549 cells assessed as G2/M phase at 200 nM measured after 24 hrs by propidium iodide staining based flow cytometry analysis (reference value: 6.08%); assay type: functional
U-251 [14] = assay: Induction of apoptosis in human U-251 cells assessed as increase in viable cells at 1000 nM measured after 24 hrs by PI/FITC analysis (reference value: 98.3%); assay type: functional
MCF7 = assay: Antiproliferative activity against human MCF7 cells after 48 hrs by MTT assay; assay type: functional, cell-based; conditions: MCF7, 48 h
U-251 [15] = assay: Cell cycle arrest in human U-251 cells assessed as G0/G1 phase at 500 nM measured after 24 hrs by propidium iodide staining based flow cytometry analysis (reference value: 67.34%); assay type: functional

SMILES: COc1cc(-c2cccc3nc(-c4ccc5cc[nH]c5c4)oc23)cc(OC)c1OC
- Activity (U-251 [1]): 83.1%
- Activity (A549 [2]): 2.84%
- Activity (U-251 [3]): 14.77%
- Activity (U-251 [4]): 98%
- Activity (A549 [5]): 79.8%
- Activity (A549 [6]): 23.43%
- Activity (U-251 [7]): 5.18%
- IC50 (NCI-H460): 24 nM
- Activity (U-251 [8]): 2.92%
- Activity (U-251 [9]): 4.61%
- Activity (A549 [10]): 0.603%
- Activity (A549 [11]): 55.78%
- Activity (A549 [12]): 15.24%
- Activity (A549 [13]): 61.33%
- Activity (U-251 [14]): 77.4%
- IC50 (MCF7): > 25000 nM
- Activity (U-251 [15]): 34.64%

— ChEMBL document CHEMBL4831506, “Discovery of novel trimethoxyphenylbenzo[d]oxazoles as dual tubulin/PDE4 inhibitors capable of inducing apoptosis at G2/M phase arrest in glioma and lung cancer cells” (Eur J Med Chem, 2021)
